According to patent US9809625B2, “Immunomodulators” (BRISTOL-MYERS SQUIBB COMPANY, priority 2015, dated 2017):
Bridge positions count the residues as written; N and C are the ends. Square brackets hold non-standard residues; d marks the D form. Peptide text beside a SMILES is read from it. * marks the point of attachment. ξ: configuration not given here. Hyp = O=C(O)[C@@H]1C[C@@H](O)CN1; ξW = NC(Cc1c[nH]c2ccccc12)C(=O)O; NMeNle = CCCC[C@H](NC)C(=O)O; X3 = CN(CCN*)C(=O)OC(C)(C)C; X7 = CC(C)(C)OC(=O)NCCCCCN*; NMeA = CN[C@@H](C)C(=O)O; Dap = NC[C@H](N)C(=O)O; X12 = OCC1CCN(*)CC1; X6 = O=C1CN(*)CCN1; OtBu = CC(C)(C)O*; βAla = NCCC(=O)O

Molecular target: T1, PD-1-Ig binding to PD-L1-TVMV-His (PD-L1-His) (Homo sapiens, UniProt Q9NZQ7)
T1 construct: hPDL1(19-239)-TVMV-His; TVMV protease cleavage site (C); made in house; host or cells: HEK293T
T1 sequence (Q9NZQ7 with tags, fused parts or gaps): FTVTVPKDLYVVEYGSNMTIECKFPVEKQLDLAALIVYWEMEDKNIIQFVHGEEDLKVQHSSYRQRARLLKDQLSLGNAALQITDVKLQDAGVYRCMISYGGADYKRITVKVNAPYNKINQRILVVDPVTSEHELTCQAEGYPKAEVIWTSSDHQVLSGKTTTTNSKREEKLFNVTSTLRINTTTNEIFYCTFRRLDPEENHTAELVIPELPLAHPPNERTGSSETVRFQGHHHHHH
Experiment: PD-1/PD-L1 Homogenous Time-Resolved Fluorescence (HTRF) binding assay
Conditions: PD-1-Ig (20 nM)/PD-L1-His (10 nM), range classes
Excerpt: Methods for Testing the Ability of Macrocyclic Peptides to Compete for the Binding of PD-1 to PD-L1 Using Homogenous Time-Resolved Fluorescence (HTRF) Binding Assays
The ability of the macrocyclic peptides of the present disclosure to bind to PD-L1 was investigated using a PD-1/PD-L1 Homogenous Time-Resolved Fluorescence (HTRF) binding assay.
Homogenous Time-Resolved Fluorescence (HTRF) Assays of Binding of Soluble PD-1 to Soluble PD-L1. Soluble PD-1 and soluble PD-L1 refers to proteins with carboxyl-end truncations that remove the transmembrane-spanning regions and are fused to heterologous sequences, specifically the Fc portion of the human immunoglobuling G sequence (Ig) or the hexahistidine epitope tag (His). All binding studies were performed in an HTRF assay buffer consisting of dPBS supplemented with 0.1% (w/v) bovine serum albumin and 0.05% (v/v) Tween-20. For the PD-1-Ig/PD-L1-His binding assay, inhibitors were pre-incubated with PD-L1-His (10 nM final) for 15 m in 4 μl of assay buffer, followed by addition of PD-1-Ig (20 nM final) in 1 μl of assay buffer and further incubation for 15 m. PD-L1 fusion proteins from either human, cynomologous macaques, mouse, or other species were used. HTRF detection was achieved using europium crypate-labeled anti-Ig monoclonal antibody (1 nM final) and allophycocyanin (APC) labeled anti-His monoclonal antibody (20 nM final). Antibodies were diluted in HTRF detection buffer and 5 μl was dispensed on top of binding reaction. The reaction was allowed to equilibrate for 30 minutes and signal (665 nm/620 nm ratio) was obtained using an EnVision fluorometer. Additional binding assays were established between PD-1-Ig/PD-L2-His (20 and 5 nM, respectively), CD80-His/PD-L1-Ig (100 and 10 nM, respectively) and CD80-His/CTLA4-Ig (10 and 5 nM, respectively). Binding/competition studies between biotinylated Compound No. 71 and human PD-L1-His were performed as follows. Macrocyclic peptide inhibitors were pre-incubated with PD-L1-His (10 nM final) for 60 minutes in 4 μl of assay buffer followed by addition of biotinylated Compound No. 71 (0.5 nM final) in 1 μl of assay buffer. Binding was allowed to equilibrate for 30 minutes followed by addition of europium crypated labeled Streptavidin (2.5 pM final) and APC-labeled anti-His (20 nM final) in 5 μl of HTRF buffer. The reaction was allowed to equilibrate for 30 m and signal (665 nm/620 nm ratio) was obtained using an EnVision fluorometer.
Recombinant Proteins. Carboxyl-truncated human PD-1 (amino acids 25-167) with a C-terminal human Ig epitope tag [hPD-1 (25-167)-3S-IG] and human PD-L1 (amino acids 18-239) with a C-terminal His epitope tag [hPD-L1(19-239)-tobacco vein mottling virus protease cleavage site (TVMV)-His] were expressed in HEK293T cells and purified sequentially by recombinant Protein A affinity chromatography and size exclusion chromatography. Human PD-L2-His (Sino Biologicals), CD80-His (Sino Biologicals), CTLA4-Ig (RnD Systems) were all obtained through commercial sources.

| Compound | IC50 [nM] |
| --- | --- |
| CCCC[C@H]1C(=O)N(C)[C@@H](CCCC)C(=O)N[C@@H](CC(C)C)C(=O)N[C@H](C(=O)NCC(=O)NCCC(=O)OC(C)(C)C)CSCC(=O)N[C@@H](Cc2ccc(O)cc2)C(=O)N(C)[C@@H](C)C(=O)N[C@@H](CC(N)=O)C(=O)N2CCC[C@H]2C(=O)N[C@@H](CN)C(=O)N[C@@H](CC(C)C)C(=O)N2C[C@H](O)C[C@H]2C(=O)N[C@@H](Cc2c[nH]c3ccccc23)C(=O)NCC(=O)NC(Cc2c[nH]c3ccccc23)C(=O)N1C (stereo partly drawn) [Example 13109] ({CH2CO}-Y[NMeA]NP[Dap]L[Hyp]WG[ξW][NMeNle][NMeNle]LCG[βAla]-OtBu; thioether N-14) | 10 to 60 |
| CCCC[C@H]1C(=O)N(C)[C@@H](CCCC)C(=O)N[C@@H](CC(C)C)C(=O)N[C@H](C(=O)NCC(=O)NCCC(N)=O)CSCC(=O)N[C@@H](Cc2ccc(O)cc2)C(=O)N(C)[C@@H](C)C(=O)N[C@@H](CC(N)=O)C(=O)N2CCC[C@H]2C(=O)N[C@@H](CN)C(=O)N[C@@H](CC(C)C)C(=O)N2C[C@H](O)C[C@H]2C(=O)N[C@@H](Cc2c[nH]c3ccccc23)C(=O)NCC(=O)NC(Cc2c[nH]c3ccccc23)C(=O)N1C (stereo partly drawn) [Example 13110] ({CH2CO}-Y[NMeA]NP[Dap]L[Hyp]WG[ξW][NMeNle][NMeNle]LCG[βAla]-NH2; thioether N-14) | 4 to 9.9 |
| CCCC[C@H]1C(=O)N(C)[C@@H](CCCC)C(=O)N[C@@H](CC(C)C)C(=O)N[C@H](C(=O)NCC(=O)N2CCC(CO)CC2)CSCC(=O)N[C@@H](Cc2ccc(O)cc2)C(=O)N(C)[C@@H](C)C(=O)N[C@@H](CC(N)=O)C(=O)N2CCC[C@H]2C(=O)N[C@@H](CN)C(=O)N[C@@H](CC(C)C)C(=O)N2C[C@H](O)C[C@H]2C(=O)N[C@@H](Cc2c[nH]c3ccccc23)C(=O)NCC(=O)NC(Cc2c[nH]c3ccccc23)C(=O)N1C (stereo partly drawn) [Example 13111] ({CH2CO}-Y[NMeA]NP[Dap]L[Hyp]WG[ξW][NMeNle][NMeNle]LCG-X12; thioether N-14) | 10 to 60 |
| CCCC[C@H]1C(=O)N(C)[C@@H](CCCC)C(=O)N[C@@H](CC(C)C)C(=O)N[C@H](C(=O)NCC(=O)NCCCCCNC(=O)OC(C)(C)C)CSCC(=O)N[C@@H](Cc2ccc(O)cc2)C(=O)N(C)[C@@H](C)C(=O)N[C@@H](CC(N)=O)C(=O)N2CCC[C@H]2C(=O)N[C@@H](CN)C(=O)N[C@@H](CC(C)C)C(=O)N2C[C@H](O)C[C@H]2C(=O)N[C@@H](Cc2c[nH]c3ccccc23)C(=O)NCC(=O)NC(Cc2c[nH]c3ccccc23)C(=O)N1C (stereo partly drawn) [Example 13112] ({CH2CO}-Y[NMeA]NP[Dap]L[Hyp]WG[ξW][NMeNle][NMeNle]LCG-X7; thioether N-14) | 10 to 60 |
| CCCC[C@H]1C(=O)N(C)[C@@H](CCCC)C(=O)N[C@@H](CC(C)C)C(=O)N[C@H](C(=O)NCC(=O)NCCN(C)C(=O)OC(C)(C)C)CSCC(=O)N[C@@H](Cc2ccc(O)cc2)C(=O)N(C)[C@@H](C)C(=O)N[C@@H](CC(N)=O)C(=O)N2CCC[C@H]2C(=O)N[C@@H](CN)C(=O)N[C@@H](CC(C)C)C(=O)N2C[C@H](O)C[C@H]2C(=O)N[C@@H](Cc2c[nH]c3ccccc23)C(=O)NCC(=O)NC(Cc2c[nH]c3ccccc23)C(=O)N1C (stereo partly drawn) [Example 13113] ({CH2CO}-Y[NMeA]NP[Dap]L[Hyp]WG[ξW][NMeNle][NMeNle]LCG-X3; thioether N-14) | 10 to 60 |
| CCCC[C@H]1C(=O)N(C)[C@@H](CCCC)C(=O)N[C@@H](CC(C)C)C(=O)N[C@H](C(=O)NCC(=O)N2CCNC(=O)C2)CSCC(=O)N[C@@H](Cc2ccc(O)cc2)C(=O)N(C)[C@@H](C)C(=O)N[C@@H](CC(N)=O)C(=O)N2CCC[C@H]2C(=O)N[C@@H](CN)C(=O)N[C@@H](CC(C)C)C(=O)N2C[C@H](O)C[C@H]2C(=O)N[C@@H](Cc2c[nH]c3ccccc23)C(=O)NCC(=O)NC(Cc2c[nH]c3ccccc23)C(=O)N1C (stereo partly drawn) [Example 13114] ({CH2CO}-Y[NMeA]NP[Dap]L[Hyp]WG[ξW][NMeNle][NMeNle]LCG-X6; thioether N-14) | 4 to 9.9 |
